Measurements reported in patent US11382985B2, “Anti-tumour immune responses to modified self-epitopes” (Scancell Limited, priority 2015, dated 2022).
Square brackets hold non-standard residues; d marks the D form. Ends that are not written are not given here. Cit = NC(=O)NCCC[C@H](N)C(=O)O

Legend:
splenocytes = experiment: Peptide immunisation and ex vivo Elispot, DR4 mice; assay type: in vivo, HLA-DR4 transgenic mouse
Description: (§1) C57BL/6 mice (Charles River, UK), HLA-DR4 mice (Taconic, USA), HHDII/DR1 mice (Pasteur institute, France) and the HHD/HLA-DP4 transgenic strain of mouse as described in patent WO2013/017545 A1 (EMMA repository, France) were used, aged between 8 and 12 weeks, and cared for by the staff at Nottingham Trent University. All work was carried out under a Home Office project licence. Peptides were dissolved in PBS to 1 mg/ml and then emulsified (a series of dilutions) with different adjuvants: CpG and MPLA 6 μg/mouse of each (Invivogen, UK), Incomplete Freund's 50 μl/mouse (Sigma, UK), poly I:C 10 μg/mouse (Invivogen, UK), Imiquimod 25 μg/mouse (Invivogen, UK) and GMCSF 10 μg/mouse (Peprotech, UK). Peptides (25 μg/mouse) were injected subcutaneously at the base of the tail. DNA (1 μg/mouse) was coated onto 1.0 μm gold particles (BioRad, Hemel Hempstead, UK) using the manufacturer's instructions and administered intradermally by genegun (BioRad). Homspera (10 nM/mouse) (PeptideSynthetics, UK) was injected intradermally with genegun immunisation. Mice were immunized at either day 0 for peptide immunisation or days, 0 and 7 for genegun immunisation, unless otherwise stated. Spleens were removed for analysis at day 14 for peptide and day 20 for peptide or genegun immunisation unless stated otherwise.
Elispot assays were performed using murine IFNγ, IL-17 and IL-10 capture and detection reagents according to the manufacturer's instructions (Mabtech, Sweden). In brief, anti-IFNγ, IL-17 and IL-10 antibodies were coated onto wells of 96-well Immobilin-P plate. Synthetic peptides (at a variety of concentrations) and 5×10^5 per well splenocytes were added to the wells of the plate in triplicate. Tumour target cells were added where relevant at 5×10^4/well in triplicate and plates incubated for 40 hrs at 37° C. After incubation, captured IFN and IL-10 were detected by biotinylated anti-IFNγ and IL-10 antibodies and developed with a streptavidin alkaline phosphatase and chromogenic substrate. Spots were analysed and counted using an automated plate reader (Cellular Technologies Ltd).

B16DP4 tumour = experiment: B16DP4 melanoma tumour challenge; assay type: in vivo, DP4 transgenic mice; conditions: peptide immunisation after B16DP4 implant; unimmunized 10%
Description: as §1, with “Homspera (10 nM/mouse) (PeptideSynthetics, UK) was injected intradermally with genegun immunisation. Mice were immunized at either day 0 for peptide immunisation or days, 0 and 7 for genegun immunisation, unless otherwise stated. Spleens were removed for analysis at day 14 for peptide and day 20 for peptide or genegun immunisation unless stated otherwise.” left out
For tumour challenge experiments mice were challenged with 2.5×10^4 B16 DR4 cells or 1×10^6 LLC2/LLC2 DR4 cells, 2.5×10^5 Pan02 DR4 cells in matrigel or 4×10^5 B16 HHDII DP4 cells subcutaneously on the right flank 3 days prior to primary immunisation and then were immunised as above. Tumour growth was monitored at 3-4 days intervals and mice were humanely euthanized once tumour reached ≥10 mm in diameter.

Pan02 DR4 = Pan02 DR4 pancreatic tumour challenge; assay type: in vivo, DR4 transgenic mice; conditions: peptide immunisation 4 days after tumour challenge; none of unimmunized survived
PBMCs [1] = experiment: Luminex cytokine analysis of PBMC culture supernatants; assay type: cell-based, human
Description: A three-step indirect procedure was used for the multiplexed Luminex assay (Invitrogen) for IgG antibodies to IL-10, IL-17, IFNy, TNFα, IL-2 & IL-4. Standard, control, and unknown sera were diluted 1:2 in 50% assay diluent buffer (Invitrogen) & 50% serum free RPMI. Serial standard dilutions were included in each assay. Each dilution of standard, control, and unknown sera was mixed with a set of coupled Luminex microspheres in 96-well filtration plates (Millipore Multiscreen; Millipore Corporation, Bedford, Mass.) and incubated for 2 hours at room temperature with shaking. Microspheres were collected by vacuum filtration and washed with PBST. Biotinylated detector antibody was added to each well for 1 hour at room temperature with shaking. Microspheres were collected by vacuum filtration and washed with PBST. Streptavidin conjugated R-phycoerythrin—was added to each well. Following a 30 minute incubation and a wash step, microspheres were resuspended in PBST, and read in a Biorad BioPlex Luminex analyzer equipped with an XY platform. Data acquisition and analysis performed with Luminex software (BioPlex Systems)

PBMCs [2] = experiment: PBMC culture and IFNγ Elispot; assay type: cell-based, human; conditions: donors 1 and 4, PBMCs cultured 13 days; label = restimulating peptide
Description: PBMC were isolated from freshly drawn heparinised blood by Ficol-Hypaque (Sigma) gradient centrifugation. PBMC (1.5×10^6 cells/well) were stimulated with single peptides (final concentration 10 μg/ml) in RPMI containing 5% pooled autologous human serum, 2 mM glutamine, 20 mM HEPES, Penicillin-streptomycin (1%), 10 ng/ml recombinant human IL-15 and 5 ng/ml recombinant human IL-7 in a final volume of 2 ml. Recombinant human IL-2 was added on day 3 at 20 IU/ml. On day 13 cells were washed and added to human IFN elispot assay. Elispot assays were performed using human IFNγ capture and detection reagents according to the manufacturer's instructions (Mabtech, Sweden). In brief, anti-IFNγ antibody was coated onto wells of 96-well Immobilin-P plate. Synthetic peptides (at 10 μg/ml) and 1×10^5 per well PBMCs were added to the wells of the plate in quadruplicate and plates incubated for 20 hrs at 37° C. After incubation, captured IFNγ was detected by biotinylated anti-IFN antibody and developed with a streptavidin alkaline phosphatase and chromogenic substrate. Spots were analysed and counted using an automated plate reader (Cellular Technologies Ltd).

PBMCs [3] = experiment: Intracellular cytokine staining of PBMCs; assay type: cell-based, human; conditions: donor 4, cultured 13 days in Enolase 241cit, restimulated; label = restimulating peptide
Description: PBMC cultures were set up as detailed above. On day 14 PBMCs were washed and cultured with synthetic peptide (10 μg/ml) in the presence of brefeldin A for 20 hrs at 37° C. Cells were stained with cell surface markers CD4 and CD8 using PE-Cy5 and efluor450 labelled antibodies respectively. Cells were subsequently fixed and permeabilised and stained with IFNγ PE-Cy7 labelled antibody. After staining cells were fixed and analysed on Miltenyi MACSQuant flow cytometer.

[4] = DR4 mice immunised with human 241cit
[5] = DR4 mice, single immunisation 25 μg human 241cit + CpG/MPLA

VIGMDVAASEFF-CIT-SGKYDLD (VIGMDVAASEFF[Cit]SGKYDLD; listed as Homo sapiens) [Enolase 241cit]
IFN response with GM-CSF (splenocytes; 1 or 3 doses with 25 μg of peptide): Detectable responses
IFNγ response in CD4 depleted fraction (splenocytes; [4]): not
IFNγ response in CD4 enriched fraction (splenocytes; [4]): present
IFNγ response in presence of CD4 blocking antibody (GK1.5) (splenocytes; [4]): significantly reduced
IL-10 production in response to peptide stimulation (splenocytes; DR4 mice immunised with human 241cit, ex vivo IL-10 ELISpot): No significant increase in IL-10 production
IFNγ response in presence of human MHC class II blocking antibody (L243) (splenocytes; DR4 mice immunised with human 241cit, label = restimulating peptide): significantly reduced
IFNγ response with adjuvant CpG/MPLA (splenocytes; DR4 mice, single dose): detected
IFNγ response with adjuvant IFA (splenocytes; DR4 mice, single dose): no IFNγ response
IL-10 response with adjuvant CpG/MPLA (splenocytes; DR4 mice, single dose): not
IL-10 response with adjuvant IFA (splenocytes; DR4 mice, single dose): detected
IFNγ responses after 6 and 14 days compared to after 2 days (splenocytes; DR4 mice, single dose in CpG/MPLA): significantly increased
time after immunisation at which IFNγ response is detectable (splenocytes; DR4 mice, single dose in CpG/MPLA, sacrificed after 2, 6 or 14 days): 6 days
IFNγ response to human citrullinated sequence compared to media (splenocytes; [5]): significant IFNγ response
IFNγ response to mouse citrullinated sequence compared to media (splenocytes; [5]): significant IFNγ response
immune response to human or mouse wild type (wt) sequence (splenocytes; [5]): neither
IFNγ response in combination with poly I:C (splenocytes; DR4 transgenic mice): induces IFNγ responses
IL-10 response in combination with poly I:C (splenocytes; DR4 transgenic mice): no IL-10
response in the absence of adjuvant (splenocytes; peptide immunisation without adjuvant): no response
survival rate after 60 days (B16DP4 tumour): 70%
survival at day 60 (Pan02 DR4): 50%
IL-17, Granzyme B and TNFα levels above media background (PBMCs [1]; Donor 4 supernatants): higher
IFNγ and IL-10 levels above media background (PBMCs [1]; Donor 4 supernatants at each time point): citrullinated peptide specific responses which increased over time
IFNγ response (PBMCs [1]; cultures on 3 donors): IFNγ responses
IL-10, TNFα or IL-17 responses (PBMCs [1]; cultures on 3 donors): low level
IL-17 production by normal donors (PBMCs [1]; normal donors stimulated with peptide): no IL-17 was produced
IFNγ response on restimulation (PBMCs [2]): show responses
IFNγ positive CD4 cells (PBMCs [3]): 0.44%
